A short description of assay [1]: Test for synergism: analgesia 3 hours after oral co-administration, adjuvans arthritis pain test on the rat. In kind it is in vivo, rat (male OFA). The protocol: In order to establish the presence or absence of synergism the basic analgesic test described above is employed, with analgesia measured three hours after administration of the test substance. Varying proportions of the two test-substance components are used, in fixed dose relationships, based upon the ED50 values previously established for the individual components. The degree of activity is then presented graphically. The test components are administered orally in tragacanth suspension and 5 to 15 animals employed per test run. The two test-components are administered in the following dose relationship: […]
Thus three basic curves may be obtained as shown diagramatically in FIG. 1 in which a curve x represents potentiation (i.e. super-additive synergism), a curve y represents additive synergism and a curve z represents antagonism.

A short description of assay [2]: Basic analgesic test: adjuvans arthritis pain test on the rat, oral administration. In kind it is in vivo, rat (male OFA). The following applies: for ED50: Rattus norvegicus, po, individual component. As for the experimental part: J. of Pharmacology 31, 207-215 (1975)], e.g. as follows: […] This induces a secondary arthritis of the right hind-paw within the course of the next two or more days. The test for analgesic effectiveness is carried out 16 to 18 days later. A control measurement is carried out 30 minutes prior to administration of the test-substance, by flexing the ankle-joint of the right hind paw three times and recording the number of vocalisations (pain-reaction). […] The confidence limits are determined according to the method of […] Wilcoxon. All tests are carried out blind, employing 5 to 15 animals per test substance.

Where [3] appears, read: 1 hour after administration, read-out: ED50 at 1 hour after administration.
The mark [4] stands for this setting: 3 hours after administration, read-out: ED50 at 3 hours after administration.
Where [5] appears, read: 5 hours after administration, read-out: ED50 at 5 hours after administration.

SMILES strings stand for the structures. Read-outs that look alike come from different tables or passages of the source.

Here are results for two molecules from patent US4442084A, “Analgesic and myotonolytic preparations” (Sandoz Ltd., priority 1979, dated 1984).

With `Clc1ccc2nsnc2c1NC1=NCCN1` [Component B, 5-chloro-4-(2-imidazolin-2-ylamino)-2,1,3-benzothiadiazole], the “% activity” value in assay [1] (A 0, B 3.6 mg/kg p.o. (relative dosage 0 : 1)) was 50%. For the same molecule, the ED50 was approximately 1.8 mg/kg in assay [2] (setting [3]), 3.6 mg/kg in assay [2] (setting [4]) and approximately 10 mg/kg in assay [2] (setting [5]). In addition, the “percentage printed in parentheses beside the ED50 at 5 hours (not explained)” value in assay [2] (p.o., 5 hours after administration) is on record as -60%.
On to `Cc1ccc2c(-c3ccc(F)cc3)nc(=O)n(C(C)C)c2c1` [Component A, 1-Isopropyl-4-(4-fluorophenyl)-7-methyl-2(1H)-quinazolinone], for which the activity at 6.5 mg/kg in assay [1] (Rattus norvegicus, po, A 6.5 mg/kg, B 0 p.o. (relative dosage 1 : 0)) amounted to 50%. Also, the ED50 in assay [2] (setting [3]) is approximately 18 mg/kg; in assay [2] (setting [4]), 6.5 mg/kg; in assay [2] (setting [5]), 7 mg/kg.
